For one test, the target named is human α2β3γ2 receptors (Homo sapiens (Human), UniProt P18507+P47869). The test is described as follows: 3H-flunitrazepam competition binding, human α2β3γ2 GABAA receptor. The note with it: HEK293 cell membranes, 1 nM 3H-flunitrazepam; read-out: Ki α2. Put shortly:
(§1)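 HEK293 membranes stably expressing each human receptor subtype ([…]) competed against 1 nM 3H-flunitrazepam in Tris buffer, 1 h at room temperature; flumazenil defined the low-signal control. Eight-point 4-fold test-compound dilutions; GF/C filtration and scintillation counting gave IC50 by curve fitting, converted to Ki.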

The target in a further test is human α3β3γ2 receptors (Homo sapiens (Human), UniProt P18507+P34903). The test is described as follows: 3H-flunitrazepam competition binding, human α3β3γ2 GABAA receptor. The note with it: HEK293 cell membranes, 1 nM 3H-flunitrazepam; read-out: Ki α3. The procedure, abridged: as §1
Test [1] addresses α5-GABAA receptor (α5, β3, γ2 subunits) (Homo sapiens (Human), UniProt P18507+P31644). The test is described as follows: Whole cell patch clamp, inverse agonist efficacy in HEK293 cells expressing α5-GABAA receptor. It counts as cell-based. The conditions noted are these: HEK293, drug 100 nM, GABA 0.05 μM, −60 mV; read-out: Compound inverse agonist efficacy %. The procedure, abridged: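 Stable HEK293 line co-expressing human α5, β3, γ2 subunits; whole-cell patch clamp at −60 mV, inward current evoked by 0.05 μM GABA, then compound at 100 nM in GABA solution applied. Effect derived from leak, pre- and post-drug GABA currents.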
On the technique in general: Patch clamp records ionic current or voltage across a cell membrane.

The Ki is a measure of affinity in units of concentration, obtained from inhibition or displacement. For `Cc1nnn(-c2ccc(C(F)F)cc2)c1COc1ccc(N2CC(=O)NC(C)C2)nn1` (stereo not drawn) [Example 6, 4-(6-((1-(4-(Difluoromethyl)phenyl)-4-methyl-1H-1,2,3-triazol-5-yl)methoxy)pyridazin-3-yl)-6-methylpiperazin-2-one], the Ki at human α2β3γ2 receptors amounted to 15.9 nM; on human α3β3γ2 receptors it was 14.1 nM. The inhibition at 0.1 µM in test [1] came to 42.5%.

The values above are taken from patent publication US20250136581A1, “SUBSTITUTED TRIAZOLE DERIVATIVE, PREPARATION METHOD THEREFOR, PHARMACEUTICAL COMPOSITION THEREOF, AND USE THEREOF” (SHANGHAI SIMR BIOTECHNOLOGY CO., LTD., priority 2021, published 2025).
